Source: patent publication US20240366594A1, “Small Molecule Inhibitors of Formation of Neutrophil-Derived Extracellular Traps (NETosis) and Uses Thereof” (The Brigham and Women's Hospital, Inc., priority 2021, published 2024)

Assays:
[1] = test system: neutrophils that lack HDAC6; experiment: NET induction in PMA-stimulated neutrophils from HDAC6KO mice; format: cell-based, mouse; settings: ricolinostat 10, 2, 0.4, 0.08 μM, then PMA; FIG. 5G
Protocol: (§1) FIGS. 5A-J. Class I/II HDACs drive NET formation. • A) Quantification of extracellular DNA released by neutrophils treated, or not, with 1 μM GSK484 for 1 h and then stimulated with 1 μM PMA for 4 hours. Unstimulated, neutrophils not treated with drugs were used as a control. • B) Freshly purified human neutrophils were treated with the indicated HDAC inhibitors at different doses (0.08, 0.4, 2 and 10 μM) for 1 hour. Extracellular DNA release was assessed in the supernatant 3 hours after PMA stimulation. The dotted line represents the amount of DNA released from neutrophils treated with PMA alone. […] NETosis induction was measured as level of anti-CitH3 fluorescent signal. […] NET induction was measured as in (C). […] NETosis induction was measured as level of anti-CitH3 fluorescent signal. […] NET induction was measured as in (F). • H, I) Freshly isolated neutrophils from two different donors were treated with different doses of ricolinostat, citarinostat (10, 2, 0.4, 0.08 μM) or GSK484 (10, 5, 2 μM) for 1 h and then stimulated with 1 μM PMA. NET induction was measured as level of anti-CitH3 fluorescent signal (H) and by microscopy as number of cells positive for CitH3 signal per field of view (FOV) (I). […] NET induction was measured as level of anti-CitH3 fluorescent signal. […] Statistics were calculated using One-way ANOVA (A, E, I) and Two-way ANOVA (B, F, G, H, L). […]

Murine neutrophils = experiment: NET induction in response to nigericin in murine neutrophils; format: cell-based, mouse; design: dose or concentration left out as unconfirmed; settings: nigericin for 3 hours; FIG. 5E
Protocol: as §1

For `O=C(CCCCCCNC(=O)c1cnc(N(c2ccccc2)c2ccccc2)nc1)NO` [ricolinostat], the “NET induction in HDAC6-lacking neutrophils” value [1] was “remained sensitive” and the “NET induction in response to nigericin (anti-CitH3 signal)” value (Murine neutrophils) was “inhibited NET induction”.
